{
  "source": "patent US12077503B2",
  "about": "“Substituted cyclic amides and their use as herbicides” (FMC CORPORATION, priority 2015, dated 2024)",
  "format_in_all_cases": "in vivo",
  "key": {"corn (Zea mays)": {"test_system": "corn (Zea mays)", "assay": "Test A postemergence", "conditions": "Zea mays, post-emergence, 240 h, Postemergence", "summary_of_the_method": "(§1)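 Each rating is a visual injury score from 0 to 100 given about 10 d after treatment, judged against untreated controls kept alongside in the greenhouse. In loam soil–sand blend, seeds got a preemergence directed soil spray, while postemergence plants were 2 to 10 cm tall at spraying.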"}, "[1]": {"test_system": "pigweed (Amaranthus retroflexus)", "assay": "Test A postemergence", "conditions": "Amaranthus retroflexus, post-emergence, 240 h, Postemergence", "summary_of_the_method": "as §1"}, "[2]": {"test_system": "ryegrass, Italian (Italian ryegrass, Lolium multiflorum)", "assay": "Test A postemergence", "conditions": "Lolium multiflorum, post-emergence, 240 h, Postemergence", "summary_of_the_method": "as §1"}, "[3]": {"test_system": "wheat (Triticum aestivum)", "assay": "Test A postemergence", "conditions": "Triticum aestivum, post-emergence, 240 h, Postemergence", "summary_of_the_method": "as §1"}, "[4]": {"test_system": "blackgrass (Alopecurus myosuroides)", "assay": "Test A postemergence", "conditions": "Alopecurus myosuroides, post-emergence, 240 h, Postemergence", "summary_of_the_method": "as §1"}, "[5]": {"test_system": "giant foxtail (Setaria faberii)", "assay": "Test A postemergence", "conditions": "Setaria faberi, post-emergence, 240 h, Postemergence", "summary_of_the_method": "as §1"}, "Kochia (Kochia scoparia) [6]": {"test_system": "Kochia (Kochia scoparia)", "assay": "Test A postemergence", "conditions": "Bassia scoparia, post-emergence, 240 h, Postemergence", "summary_of_the_method": "as §1"}, "[7]": {"test_system": "barnyardgrass (Echinochloa crus-galli)", "assay": "Test A postemergence", "conditions": "Echinochloa crus-galli, post-emergence, 240 h, Postemergence", "summary_of_the_method": "as §1"}, "[8]": {"test_system": "Galium (catchweed bedstraw, Galium aparine)", "assay": "Test A postemergence", "conditions": "Galium, post-emergence, 240 h, Postemergence", "summary_of_the_method": "as §1"}, "[9]": {"test_system": "ragweed (common ragweed, Ambrosia elatior)", "assay": "Test A postemergence", "conditions": "Ambrosia artemisiifolia, post-emergence, 240 h, Postemergence", "summary_of_the_method": "as §1"}, "[10]": {"test_system": "pigweed (Amaranthus retroflexus)", "assay": "Test A preemergence", "conditions": "Amaranthus retroflexus, pre-emergence, 240 h"}, "[11]": {"test_system": "ryegrass, Italian (Italian ryegrass, Lolium multiflorum)", "assay": "Test A preemergence", "conditions": "Lolium multiflorum, pre-emergence, 240 h, Preemergence, 125 g ai/ha; 0 to 100 scale (0 no effect, 100 complete control); read-out: Plant response rating, Ryegrass, Italian", "summary_of_the_method": "as §1"}, "[12]": {"test_system": "giant foxtail (Setaria faberii)", "assay": "Test A preemergence", "conditions": "Setaria faberi, pre-emergence, 240 h", "summary_of_the_method": "as §1"}, "Kochia (Kochia scoparia) [13]": {"test_system": "Kochia (Kochia scoparia)", "assay": "Test A preemergence", "conditions": "Bassia scoparia, pre-emergence, 240 h", "summary_of_the_method": "as §1"}, "[14]": {"test_system": "barnyardgrass (Echinochloa crus-galli)", "assay": "Test A preemergence", "conditions": "Echinochloa crus-galli, pre-emergence, 240 h", "summary_of_the_method": "as §1"}, "[15]": {"test_system": "ragweed (common ragweed, Ambrosia elatior)", "assay": "Test A preemergence", "conditions": "Ambrosia artemisiifolia, pre-emergence, 240 h", "summary_of_the_method": "as §1"}},
  "data": [
    {"compound": "CN1C[C@H](c2ccc3c(c2)CCO3)[C@@H](C(=O)Nc2ccccc2F)C1=O", "note": "[Compound 1321]", "values": [
      {"measurement": "plant injury at 125 g/ha", "setting": "corn (Zea mays); 125 g ai/ha, visual rating about 10 d after treatment, read-out: Corn plant response rating (0 to 100 scale)", "value": 40, "unit": "%"},
      {"measurement": "Corn plant response rating (crop injury, 0 = no effect, 100 = complete kill) at 500 g/ha", "setting": "corn (Zea mays); 500 g ai/ha, visual injury, 0 to 100 scale (0 no effect, 100 complete control), approx. 10 d", "value": 70, "unit": "%"},
      {"measurement": "pest or weed control at 125 g/ha", "setting": "[1]; 125 g ai/ha, visual rating about 10 d after treatment, read-out: Pigweed plant response rating (0 to 100 scale)", "value": 0, "unit": "%"},
      {"measurement": "pest or weed control at 500 g/ha", "setting": "[1]; 500 g ai/ha, visual injury, 0 to 100 scale (0 no effect, 100 complete control), approx. 10 d, read-out: Plant response rating, Pigweed", "value": 0, "unit": "%"},
      {"measurement": "pest or weed control at 125 g/ha", "setting": "[2]; 125 g ai/ha, visual rating about 10 d after treatment, read-out: Ryegrass, Italian plant response rating (0 to 100 scale)", "value": 20, "unit": "%"},
      {"measurement": "pest or weed control at 500 g/ha", "setting": "[2]; 500 g ai/ha, visual injury, 0 to 100 scale (0 no effect, 100 complete control), approx. 10 d, read-out: Plant response rating, Ryegrass, Italian", "value": 50, "unit": "%"},
      {"measurement": "plant injury at 125 g/ha", "setting": "[3]; 125 g ai/ha, visual rating about 10 d after treatment, read-out: Wheat plant response rating (0 to 100 scale)", "value": 20, "unit": "%"},
      {"measurement": "plant injury at 500 g/ha", "setting": "[3]; 500 g ai/ha, visual injury, 0 to 100 scale (0 no effect, 100 complete control), approx. 10 d, read-out: Plant response rating, Wheat", "value": 50, "unit": "%"},
      {"measurement": "pest or weed control at 125 g/ha", "setting": "[4]; 125 g ai/ha, visual rating about 10 d after treatment, read-out: Blackgrass plant response rating (0 to 100 scale)", "value": 30, "unit": "%"},
      {"measurement": "pest or weed control at 500 g/ha", "setting": "[4]; 500 g ai/ha, visual injury, 0 to 100 scale (0 no effect, 100 complete control), approx. 10 d, read-out: Plant response rating, Blackgrass", "value": 50, "unit": "%"},
      {"measurement": "pest or weed control at 125 g/ha", "setting": "[5]; 125 g ai/ha, visual rating about 10 d after treatment, read-out: Foxtail, Giant plant response rating (0 to 100 scale)", "value": 90, "unit": "%"},
      {"measurement": "pest or weed control at 500 g/ha", "setting": "[5]; 500 g ai/ha, visual injury, 0 to 100 scale (0 no effect, 100 complete control), approx. 10 d, read-out: Plant response rating, Foxtail, Giant", "value": 90, "unit": "%"},
      {"measurement": "pest or weed control at 125 g/ha", "setting": "Kochia (Kochia scoparia) [6]; 125 g ai/ha, visual rating about 10 d after treatment, read-out: Kochia plant response rating (0 to 100 scale)", "value": 0, "unit": "%"},
      {"measurement": "pest or weed control at 500 g/ha", "setting": "Kochia (Kochia scoparia) [6]; 500 g ai/ha, visual injury, 0 to 100 scale (0 no effect, 100 complete control), approx. 10 d, read-out: Plant response rating, Kochia", "value": 50, "unit": "%"},
      {"measurement": "pest or weed control at 125 g/ha", "setting": "[7]; 125 g ai/ha, visual rating about 10 d after treatment, read-out: Barnyardgrass plant response rating (0 to 100 scale, 0 no effect, 100 complete control)", "value": 90, "unit": "%"},
      {"measurement": "pest or weed control at 500 g/ha", "setting": "[7]; 500 g ai/ha, visual injury, 0 to 100 scale (0 no effect, 100 complete control), approx. 10 d, read-out: Plant response rating, Barnyardgrass", "value": 90, "unit": "%"},
      {"measurement": "pest or weed control at 125 g/ha", "setting": "[8]; 125 g ai/ha, visual rating about 10 d after treatment, read-out: Galium plant response rating (0 to 100 scale)", "value": 30, "unit": "%"},
      {"measurement": "pest or weed control at 500 g/ha", "setting": "[8]; 500 g ai/ha, visual injury, 0 to 100 scale (0 no effect, 100 complete control), approx. 10 d, read-out: Plant response rating, Galium", "value": 50, "unit": "%"},
      {"measurement": "pest or weed control at 125 g/ha", "setting": "[9]; 125 g ai/ha, visual rating about 10 d after treatment, read-out: Ragweed plant response rating (0 to 100 scale)", "value": 0, "unit": "%"},
      {"measurement": "pest or weed control at 500 g/ha", "setting": "[9]; 500 g ai/ha, visual injury, 0 to 100 scale (0 no effect, 100 complete control), approx. 10 d, read-out: Plant response rating, Ragweed", "value": 20, "unit": "%"},
      {"measurement": "pest or weed control at 500 g/ha", "setting": "[10]; 500 g ai/ha, preemergence, 0 to 100 scale where 0 is no effect and 100 is complete control, read-out: Pigweed plant response rating", "value": 0, "unit": "%"},
      {"measurement": "pest or weed control at 125 g/ha", "setting": "[10]; Preemergence, 125 g ai/ha, 0 to 100 scale (0 no effect, 100 complete control), read-out: Plant response rating, Pigweed", "value": 0, "unit": "%"},
      {"measurement": "pest or weed control at 125 g/ha", "setting": "[11]", "value": 0, "unit": "%"},
      {"measurement": "pest or weed control at 500 g/ha", "setting": "[12]; 500 g ai/ha, preemergence, 0 to 100 scale where 0 is no effect and 100 is complete control, read-out: Foxtail, Giant plant response rating", "value": 100, "unit": "%"},
      {"measurement": "pest or weed control at 125 g/ha", "setting": "[12]; Preemergence, 125 g ai/ha, 0 to 100 scale (0 no effect, 100 complete control), read-out: Plant response rating, Foxtail, Giant", "value": 90, "unit": "%"},
      {"measurement": "pest or weed control at 500 g/ha", "setting": "Kochia (Kochia scoparia) [13]; 500 g ai/ha, preemergence, 0 to 100 scale where 0 is no effect and 100 is complete control, read-out: Kochia plant response rating", "value": 80, "unit": "%"},
      {"measurement": "pest or weed control at 125 g/ha", "setting": "Kochia (Kochia scoparia) [13]; Preemergence, 125 g ai/ha, 0 to 100 scale (0 no effect, 100 complete control), read-out: Plant response rating, Kochia", "value": 50, "unit": "%"},
      {"measurement": "pest or weed control at 500 g/ha", "setting": "[14]; 500 g ai/ha, preemergence, 0 to 100 scale where 0 is no effect and 100 is complete control, read-out: Barnyardgrass plant response rating", "value": 100, "unit": "%"},
      {"measurement": "pest or weed control at 125 g/ha", "setting": "[14]; Preemergence, 125 g ai/ha, 0 to 100 scale (0 no effect, 100 complete control), read-out: Plant response rating, Barnyardgrass", "value": 90, "unit": "%"},
      {"measurement": "pest or weed control at 500 g/ha", "setting": "[15]; 500 g ai/ha, preemergence, 0 to 100 scale where 0 is no effect and 100 is complete control, read-out: Ragweed plant response rating", "value": 50, "unit": "%"},
      {"measurement": "pest or weed control at 125 g/ha", "setting": "[15]; Preemergence, 125 g ai/ha, 0 to 100 scale (0 no effect, 100 complete control), read-out: Plant response rating, Ragweed", "value": 50, "unit": "%"}
    ]}
  ]
}
